Values after ≈ are worked out from the molar mass of the structure shown.
Assays:
[1] = system: Escherichia coli (E. coli) BAS849; assay: Antibacterial activity, microbroth dilution MIC (Table 1); assay type: cell-based; conditions: microbroth dilution, super sensitive Gram-negative E. coli BAS849, read-out: MIC, BAS849
How it was run: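 Values are MICs (μg/mL): the smallest drug amount at which macroscopically visible bacterial growth is absent under assay conditions, from a microdilution method in broth.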

[2] = system: Staphylococcus aureus (S. aureus) 29213; assay: as above; assay type: cell-based; conditions: microbroth dilution, Gram-positive S. aureus 29213, read-out: MIC, 29213
How it was run: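 Read-out: visual absence of growth. The lowest concentration meeting this gives the MIC, expressed in μg/mL, with microbroth dilution as the method.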

E. coli 25922 = assay: as above; assay type: cell-based, Escherichia coli; conditions: Escherichia coli; microbroth dilution; control Gram-negative E. coli 25922 strain; read-out: MIC, 25922
How it was run: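 Broth microdilution; endpoint = no macroscopic growth; value = lowest inhibiting concn, μg/mL.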

E. coli LZ3111 = assay: Antibacterial activity, MIC, quinolone resistant strain (Table 2); assay type: cell-based; conditions: Escherichia coli, LZ3111, read-out: MIC LZ3111
How it was run: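 Growth inhibition assessed by serial drug dilution in broth; endpoint was absence of macroscopically visible growth, reported as MIC, μg/mL.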

| Compound | MIC [1] | MIC [2] | MIC (E. coli 25922) | MIC (E. coli LZ3111) |
| --- | --- | --- | --- | --- |
| CCc1cc(C(=O)O)c(=O)[nH]c1-c1ccc2c(c1)cc(CN1C[C@@H]3[C@H](C1)[C@H]3N(Cc1ccccc1)Cc1ccccc1)n2C [Cpd 143, 6-(2-(((1R,5S,6s)-6-(dibenzylamino)-3-azabicyclo[3.1.0]hexan-3-yl)methyl)-1-methyl-1H-indol-5-yl)-5-ethyl-2-oxo-1,2-dihydropyridine-3-carboxylic acid] | < 1 µg/mL | 3.5 to 12.5 µg/mL (≈ 5.97 to 21.3 µM) | 12.5 to 150 µg/mL (≈ 21.3 to 256 µM) | 12.5 to 150 µg/mL (≈ 21.3 to 256 µM) |
| CCc1c(-c2ccc3c(c2)cc(CN2CC(F)(F)C2)n3C)[nH]c(=O)c(C(=O)O)c1O [Cpd 195, 6-(2-((3,3-difluoroazetidin-1-yl)methyl)-1-methyl-1H-indol-5-yl)-5-ethyl-4-hydroxy-2-oxo-1,2-dihydropyridine-3-carboxylic acid] | < 1 µg/mL | 1 to 3.5 µg/mL (≈ 2.4 to 8.39 µM) | 3.5 to 12.5 µg/mL (≈ 8.39 to 29.9 µM) | 12.5 to 150 µg/mL (≈ 29.9 to 359 µM) |
| CCc1cc(C(=O)O)c(=O)[nH]c1-c1ccc2c(c1)cc(CN1CC3CC1CN3)n2C (stereo not shown) [Cpd 142, 6-(2-(2,5-diazabicyclo[2.2.1]heptan-2-ylmethyl)-1-methyl-1H-indol-5-yl)-5-ethyl-2-oxo-1,2-dihydropyridine-3-carboxylic acid] | 3.5 to 12.5 µg/mL (≈ 8.61 to 30.8 µM) | 12.5 to 150 µg/mL (≈ 30.8 to 369 µM) | 12.5 to 150 µg/mL (≈ 30.8 to 369 µM) | 12.5 to 150 µg/mL (≈ 30.8 to 369 µM) |
| CCc1cc(C(=O)O)c(=O)[nH]c1-c1cc2cc(CN3CCCCC3)n(C)c2cc1C [Cpd 90, 6-(1,6-dimethyl-2-(piperidin-1-ylmethyl)-1H-indol-5-yl)-5-ethyl-2-oxo-1,2-dihydropyridine-3-carboxylic acid] | 12.5 to 150 µg/mL (≈ 30.7 to 368 µM) | 12.5 to 150 µg/mL (≈ 30.7 to 368 µM) | 12.5 to 150 µg/mL (≈ 30.7 to 368 µM) | 12.5 to 150 µg/mL (≈ 30.7 to 368 µM) |
| Cn1c(CN2CCCC2)cc2cc(-c3cc(O)c(C(=O)O)c(=O)[nH]3)ccc21 [Cpd 327, 4-hydroxy-6-(1-methyl-2-(pyrrolidin-1-ylmethyl)-1H-indol-5-yl)-2-oxo-1,2-dihydropyridine-3-carboxylic acid] | 3.5 to 12.5 µg/mL (≈ 9.53 to 34 µM) | 12.5 to 150 µg/mL (≈ 34 to 408 µM) | 12.5 to 150 µg/mL (≈ 34 to 408 µM) | 12.5 to 150 µg/mL (≈ 34 to 408 µM) |
| CCc1c(-c2ccc3c(c2)c(C)c(C)n3C)[nH]c(=O)c(C(=O)O)c1O [Cpd 30, 5-ethyl-4-hydroxy-2-oxo-6-(1,2,3-trimethyl-1H-indol-5-yl)-1,2-dihydropyridine-3-carboxylic acid] | 1 to 3.5 µg/mL (≈ 2.94 to 10.3 µM) | 1 to 3.5 µg/mL (≈ 2.94 to 10.3 µM) | 12.5 to 150 µg/mL (≈ 36.7 to 441 µM) | 12.5 to 150 µg/mL (≈ 36.7 to 441 µM) |
| CCc1c(-c2ccc3c(c2)cc(CN2C[C@@H](C)O[C@@H](C)C2)n3C)[nH]c(=O)c(C(=O)O)c1O [Cpd 172, 6-(2-(((2S,6R)-2,6-dimethylmorpholino)methyl)-1-methyl-1H-indol-5-yl)-5-ethyl-4-hydroxy-2-oxo-1,2-dihydropyridine-3-carboxylic acid] | < 1 µg/mL | 3.5 to 12.5 µg/mL (≈ 7.96 to 28.4 µM) | 12.5 to 150 µg/mL (≈ 28.4 to 341 µM) | 12.5 to 150 µg/mL (≈ 28.4 to 341 µM) |
| CCc1cc(C(=O)O)c(=O)[nH]c1-c1ccc2nc(CN3CCCC3)cn2c1.Cl.Cl [Cpd 61, 5-ethyl-2-oxo-6-(2-(pyrrolidin-1-ylmethyl)imidazo[1,2-a]pyridin-6-yl)-1,2-dihydropyridine-3-carboxylic acid dihydrochloride] | 12.5 to 150 µg/mL | 12.5 to 150 µg/mL | 12.5 to 150 µg/mL | 12.5 to 150 µg/mL |
| CCc1cc(C(=O)O)c(=O)[nH]c1-c1ccc2c(c1)cc(C1=NCCCN1)n2C [Cpd 86, 5-ethyl-6-(1-methyl-2-(1,4,5,6-tetrahydropyrimidin-2-yl)-1H-indol-5-yl)-2-oxo-1,2-dihydropyridine-3-carboxylic acid] | 12.5 to 150 µg/mL (≈ 33 to 396 µM) | 12.5 to 150 µg/mL (≈ 33 to 396 µM) | 12.5 to 150 µg/mL (≈ 33 to 396 µM) | 12.5 to 150 µg/mL (≈ 33 to 396 µM) |
| CCc1c(-c2ccc3c(c2)cc(CN(C)Cc2ccccc2)n3C)[nH]c(=O)c(C(=O)O)c1O.Cl [Cpd 218, 6-(2-((benzyl(methyl)amino)methyl)-1-methyl-1H-indol-5-yl)-5-ethyl-4-hydroxy-2-oxo-1,2-dihydropyridine-3-carboxylic acid hydrochloride] | < 1 µg/mL | 3.5 to 12.5 µg/mL | 12.5 to 150 µg/mL | 12.5 to 150 µg/mL |
| CCc1cc(C(=O)O)c(=O)[nH]c1-c1ccc2c(c1)cc(CN1C[C@H]3CCC[C@@H](N(C)Cc4ccccc4)[C@H]3C1)n2C [Cpd 146, 6-(2-(((3aR,4R,7aS)-4-(benzyl(methyl)amino)-1H-isoindol-2(3H,3aH,4H,5H,6H,7H,7aH)-yl)methyl)-1-methyl-1H-indol-5-yl)-5-ethyl-2-oxo-1,2-dihydropyridine-3-carboxylic acid] | < 1 µg/mL | 12.5 to 150 µg/mL (≈ 22.6 to 271 µM) | 1 to 3.5 µg/mL (≈ 1.81 to 6.33 µM) | 12.5 to 150 µg/mL (≈ 22.6 to 271 µM) |
| CCc1c(-c2ccc3c(c2)cc(CN(CC2CC2)C2CCCNC2)n3C)[nH]c(=O)c(C(=O)O)c1O (stereo not shown) [Cpd 265, 6-(2-(((cyclopropylmethyl)(piperidin-3-yl)amino)methyl)-1-methyl-1H-indol-5-yl)-5-ethyl-4-hydroxy-2-oxo-1,2-dihydropyridine-3-carboxylic acid] | 1 to 3.5 µg/mL (≈ 2.09 to 7.31 µM) | 1 to 3.5 µg/mL (≈ 2.09 to 7.31 µM) | 12.5 to 150 µg/mL (≈ 26.1 to 313 µM) | 12.5 to 150 µg/mL (≈ 26.1 to 313 µM) |
| CCc1c(-c2ccc3nc(N(C)C)oc3c2)[nH]c(=O)c(C(=O)O)c1O [Cpd 18, 6-(2-(dimethylamino)benzo[d]oxazol-6-yl)-5-ethyl-4-hydroxy-2-oxo-1,2-dihydropyridine-3-carboxylic acid] | 3.5 to 12.5 µg/mL (≈ 10.2 to 36.4 µM) | 1 to 3.5 µg/mL (≈ 2.91 to 10.2 µM) | 12.5 to 150 µg/mL (≈ 36.4 to 437 µM) | 12.5 to 150 µg/mL (≈ 36.4 to 437 µM) |
